Measurements reported in US4400394A, “Benzylidene derivatives” (priority 1975, dated 1983).

Assays:
[1] = Acute toxicity in mice (LD 50, intraperitoneal); conditions: mouse, in vivo, ip, CD1 mice, deaths recorded 48 hours after administration, determined graphically
Description: I. Acute toxicity in mice
The compounds of the invention and the reference substances were administered intraperitoneally to CD1 mice. The 50% lethal dose (LD 50) was determined graphically. The number of dead animals 48 hours after intraperitoneal administration was recorded.

[2] = system: convulsions induced by bicuculline in mice; test: Antagonism to convulsions induced by bicuculline in mice (anti-bicuculline activity); type: in vivo; conditions: Mus musculus, ip, intraperitoneal, dose which protects 50% of the animals against the effect of bicuculline, read-out: Anti-bicuculline activity, AD 50 (intraperitoneal administration)
Description: II. GABA-animetic activity of the compounds (I)
The experimental method of Curtis, D. R., et al., Brain Res., 1971, 33, 57 and Perez de la Mora, N., Biochem. Pharmacol., 1973, 22, 2,635, was used.
The 50% active doses (AD 50), namely the doses which protect 50% of the animals against the effect of bicuculline, were evaluated for the substances studied.

[3] = oral or parenteral administration; cited from earlier work
epilepsy = conditions: cited from earlier work

Row | Compound | LD50 at 48 h [1] | ED50 [2] | crossing of the blood-brain barrier (in words) [3] | side-effects (in words) (epilepsy; administration of GABA) | use in epilepsy (in words) (epilepsy; some cases of epilepsy, very large quantities needed)
1 | O=C(O)CCCN=C(c1ccccc1)c1cc(Cl)ccc1O [75,005] | 350 mg/kg | 120 mg/kg |  |  | 
2 | O=C(O)CCCCN=C(c1ccccc1)c1ccccc1O [75,006] | 700 mg/kg | 250 mg/kg |  |  | 
3 | O=C(O)CCCN=C(c1ccccc1)c1cc(F)ccc1O [75,010, Sodium 4-N-(α-phenyl-5-fluoro-2-hydroxy-benzylidenyl)-amino-butyrate] | 600 mg/kg | 125 mg/kg |  |  | 
4 | O=C(O)CCCN=C(c1cc(F)ccc1O)c1ccccc1F [75,017] | 525 mg/kg | 175 mg/kg |  |  | 
5 | O=C(O)CCN=C(c1ccccc1)c1ccccc1O [75,019] | 830 mg/kg | 425 mg/kg |  |  | 
6 | O=C(O)CCCN=C(c1cc(F)ccc1O)c1ccccc1Cl [75,027] | 375 mg/kg | 125 mg/kg |  |  | 
7 | Cc1ccccc1C(=NCCCC(=O)O)c1cc(F)ccc1O [75,029] | 475 mg/kg | 250 mg/kg |  |  | 
8 | NC(=O)CN=C(c1ccccc1)c1ccccc1O [75,037] | 1350 mg/kg | 20 mg/kg |  |  | 
9 | O=C(O)CCCN=C(c1cccc(F)c1)c1cc(F)ccc1O [75,044, Sodium 4-N-[α-(3-fluorophenyl)-5-fluoro-2-hydroxy-benzylidenyl]-amino-butyrate] | 850 mg/kg | 250 mg/kg |  |  | 
10 | O=C(O)CCCN=C(c1ccc(F)cc1)c1cc(F)ccc1O [75,045, Sodium 4-N-[α-(4-fluorophenyl)-5-fluoro-2-hydroxy-benzylidenyl]-amino-butyrate] | 650 mg/kg | 125 mg/kg |  |  | 
11 | O=C(O)CCCN=C(c1ccccc1O)c1ccccc1F [75,046] | 675 mg/kg | 225 mg/kg |  |  | 
12 | Cc1ccc(O)c(C(=NCCCC(=O)O)c2ccccc2F)c1 [75,053] | 600 mg/kg | 125 mg/kg |  |  | 
13 | O=C(O)CCCCCCCCCCN=C(c1ccccc1)c1cc(F)ccc1O [75,054] | 300 mg/kg | 130 mg/kg |  |  | 
14 | O=C(O)CCCCCN=C(c1ccccc1)c1cc(F)ccc1O [75,059] | 800 mg/kg | 200 mg/kg |  |  | 
15 | O=C(O)CCCCCN=C(c1ccccc1)c1ccccc1O [75,074] | 750 mg/kg | 300 mg/kg |  |  | 
16 | O=C(O)CCCCCCCCCCN=C(c1ccccc1)c1ccccc1O [75,075, Sodium 11-N-(α-phenyl-2-hydroxy-benzylidenyl)-amino-undecamoate] | 210 mg/kg | 100 mg/kg |  |  | 
17 | O=C(O)CCCN=C(c1ccccc1O)c1ccccc1Cl [75,078] | 350 mg/kg | 110 mg/kg |  |  | 
18 | NC(=O)CN=C(c1ccccc1)c1cc(F)ccc1O [75,083] | 650 mg/kg | 175 mg/kg |  |  | 
19 | O=C(O)CCCCCCCN=C(c1ccccc1)c1ccccc1O [75,100] | 600 mg/kg | 300 mg/kg |  |  | 
20 | O=C(O)CCCN=C(c1ccc(Cl)cc1)c1cc(F)ccc1O [75,102] | 500 mg/kg | 65 mg/kg |  |  | 
21 | COc1ccc(C(=NCCCC(=O)O)c2ccccc2)c(O)c1 [75,107] | 950 mg/kg | 450 mg/kg |  |  | 

Row | Compound | LD50 at 48 h [1] | ED50 [2] | crossing of the blood-brain barrier (in words) [3] | side-effects (in words) (epilepsy; administration of GABA) | use in epilepsy (in words) (epilepsy; some cases of epilepsy, very large quantities needed)
22 | COc1ccc(C(=NCCCC(=O)O)c2ccc(Cl)cc2)c(O)c1 [75,118] | 525 mg/kg | 225 mg/kg |  |  | 
23 | Cc1ccc(O)c(C(=NCCCC(=O)O)c2ccccc2Cl)c1 [75,136] | 350 mg/kg | 110 mg/kg |  |  | 
24 | NC(=O)CCCN=C(c1ccc(F)cc1)c1cc(F)ccc1O [75,166] | > 2000 mg/kg | 180 mg/kg |  |  | 
25 | NC(=O)CCCN=C(c1ccccc1)c1cc(F)ccc1O [75,167] | > 2000 mg/kg | 100 mg/kg |  |  | 
26 | CCOC(=O)CCCNC(=O)CCCN=C(c1ccccc1)c1cc(F)ccc1O [75,168] | 975 mg/kg | 500 mg/kg |  |  | 
27 | NC(=O)CCCN=C(c1ccc(Cl)cc1)c1cc(F)ccc1O [76,002, 4-[(4-Chlorophenyl)-5-fluoro-2-hydroxy-benzylidenyl]-amino-butyramide] | 900 mg/kg | 65 mg/kg |  |  | 
28 | O=C(CCCN=C(c1ccccc1)c1cc(F)ccc1O)NC1CC1 [76,010] | 1250 mg/kg | 250 mg/kg |  |  | 
29 | O=C(CCCN=C(c1ccccc1)c1cc(F)ccc1O)NC1CCCC1 [76,011] | > 2000 mg/kg | 365 mg/kg |  |  | 
30 | O=C(CCCN=C(c1ccccc1)c1cc(F)ccc1O)Nc1ccccc1 [76,012] | > 2000 mg/kg | 500 mg/kg |  |  | 
31 | O=C(CCCN=C(c1ccccc1)c1cc(F)ccc1O)NCc1ccccc1 [76,013] | > 2000 mg/kg | 200 mg/kg |  |  | 
32 | CN(C)C(=O)CCCN=C(c1ccccc1)c1cc(F)ccc1O [76,022] | 1400 mg/kg | 350 mg/kg |  |  | 
33 | CCCCN(CCCC)C(=O)CCCN=C(c1ccccc1)c1cc(F)ccc1O [76,023] | 1700 mg/kg | 300 mg/kg |  |  | 
34 | O=C(CCCN=C(c1ccccc1)c1cc(F)ccc1O)NC1CCC1 [76,030] | > 2000 mg/kg | 200 mg/kg |  |  | 
35 | CC(C)NC(=O)CCCN=C(c1ccccc1)c1cc(F)ccc1O [76,031] | > 2000 mg/kg | 500 mg/kg |  |  | 
36 | CCCC(CCN=C(c1ccccc1)c1cc(F)ccc1O)C(=O)O (stereo not drawn) [76,085] | 340 mg/kg | 170 mg/kg |  |  | 
37 | NC(=O)CCCN=C(c1cc(F)ccc1O)c1ccccc1Cl [76,086] | 235 mg/kg | 50 mg/kg |  |  | 
38 | NC(=O)CCCN=C(c1cccc(Cl)c1)c1cc(F)ccc1O [76,091] | 600 mg/kg | 300 mg/kg |  |  | 
39 | NCCCC(=O)O [GABA, γ-Aminobutyric acid] | > 4000 mg/kg | > 4000 mg/kg | does not easily cross the blood-brain barrier | substantial sideeffects (hypotension, bradycardia, and sedation) | used with success in some cases of epilepsy
40 | NC(=O)CN1CCCC1=O [PIRACETAM, reference compound] | > 4000 mg/kg | 500 mg/kg |  |  | 
41 | O=C(O)CCCN=C(c1ccccc1)c1ccccc1O [SL 74,227] | 975 mg/kg | 500 mg/kg |  |  | 
42 | O=C(O)CCCCN=C(c1ccccc1)c1cc(F)ccc1O [SL 75,106] | 600 mg/kg | 120 mg/kg |  |  | 
